According to patent publication US6800280B2, “Methods for treating HIV-infected patients by the administration of GM-CSF and a protease inhibitor” (Schering AG, priority 1997, dated 2004):
“And” between values parts separate entries of the source, which are not always exact repeats. Identical values can stand only once. “Also recorded” adds a separate entry of the source.

Experiments:
HIV = experiment: Phase I/II trial: HIV viral load by RNA-PCR (Amplicor) in HIV-infected patients; assay type: in vivo, Human Immunodeficiency Virus (HIV); conditions: GM-CSF group versus placebo group throughout the study, concurrent antiretroviral drugs
Procedure: (§1) A study was conducted to determine the safety and efficacy of human GM-CSF as a therapeutic reagent in HIV-infected patients. Because some in vitro studies had indicated the possibility that GM-CSF might enhance HIV replication in vivo, this study assessed the impact of co-administration of GM-CSF with an antiretroviral agent on HIV replication. HIV viral burden was measured by the RNA-PCR (Amplicor®) method. To assess the effects of this treatment on lymphocyte counts, blood samples were analyzed throughout the study for determination of CD3^+, CD4^+, and CD8^+ T-lymphocyte counts.
This study was a Phase I/II, randomized, double-blind, placebo-controlled, two-center trial involving patients with HIV disease. […] Viral load was determined at baseline (mean of three determinations within fourteen days of study entry), then at two weeks, four weeks, and eight weeks after starting study drugs, and on two separate occasions approximately four weeks after the conclusion of the treatment phase (post-treatment evaluation). […]
At 2, 4 and 8 weeks after the start of study drug and at follow-up (approximately 4 weeks after completion of study drug), patients were examined, their medical histories were updated, and samples were taken for laboratory studies. A central laboratory was utilized for HIV quantification laboratory tests in order to standardize procedures and minimize variability. […]

[1] = tested on: CD4^+ T-lymphocyte counts; experiment: Phase I/II randomized, double-blind, placebo-controlled trial: CD4^+ T-lymphocyte counts in HIV-infected patients; assay type: in vivo, human
Procedure: as §1
This study was a Phase I/II, randomized, double-blind, placebo-controlled, two-center trial involving patients with HIV disease. Patients meeting specific entry criteria were randomized to treatment with GM-CSF or placebo, and these were administered by subcutaneous injection three times per week for eight weeks. Viral load was determined at baseline (mean of three determinations within fourteen days of study entry), then at two weeks, four weeks, and eight weeks after starting study drugs, and on two separate occasions approximately four weeks after the conclusion of the treatment phase (post-treatment evaluation). Clinical and lymphocyte subset evaluations were performed at each of these same time points (i.e., pre-treatment, week 2, week 4, week 8, and 4 weeks post-study). Twenty patients were enrolled in the study, ten per treatment arm. All twenty patients completed the study.
Patients were eligible for inclusion in the study if the following parameters were met: documented HIV infection, including detectable RNA-PCR during baseline evaluation period, age ≧18 years (or legal age of consent), adequate hematologic function, satisfactory hepatic and renal function, adequate clinical performance status, treatment with an antiretroviral regimen that included either ritonavir or indinavir for at least 8 weeks prior to study enrollment and agreement to continue on a stable regimen throughout the study, ability and willingness to provide written informed consent, agreement to practice medically-approved contraception.
Patients were ineligible for inclusion in the study if the following exclusion criteria were met: concurrent pregnancy or breast feeding, concurrent use of other colony stimulating factors or cytokines (other than erythropoietin), life-expectancy <90 days, concurrent radiation or systemic cancer chemotherapy (or within 2 weeks prior to study entry), inability to self-administer or arrange for administration of subcutaneous injections, significant cardiac disease, prior history of adverse reaction to yeast-derived rhu GM-CSF which would prohibit retreatment, active infection (AIDS-related or not) requiring acute systemic therapy within 8 weeks prior to study enrollment, vaccination of any kind within 8 weeks of study enrollment.
Study participants were randomly assigned to receive either active GM-CSF or placebo. Patients were instructed in methods for self-administration of study medication and received preloaded syringes or vials with empty syringes for home use.
The formulation of recombinant human GM-CSF utilized in this clinical trial was LEUKINE® (commercially available from Immunex Corporation, Seattle, Wash.). LEUKINE® and placebo were supplied as lyophilized powders. Both LEUKINE® and placebo were reconstituted by the aseptic injection of Bacteriostatic Water for Injection, USP, containing 0.9% benzyl alcohol. […] These were 40 mg mannitol, USP; 10 mg sucrose, NF; and 1.2 mg TRIS (tromethamine), USP; per vial of study drug. Vials containing placebo were labeled in a fashion identical to vials containing LEUKINE®. Vials of placebo and LEUKINE® were stored refrigerated at 2-8° C. (36-46° F.). […]

[2] = WEEK 2, 9 patients, 250 mcg s.c. three times per week
[3] = WEEK 4, 10 patients, 250 mcg s.c. three times per week
[4] = WEEK 8, 10 patients, 250 mcg s.c. three times per week
[5] = WEEK 12 (post-treatment), 10 patients

With “GM-CSF: biosynthetic, yeast-derived, recombinant human GM-CSF; single 127 amino acid glycoprotein with leucine instead of proline at position 23” the “Change in viral load (in words)” value (HIV) was “no significant increase; also recorded: No significant differences; also recorded: without a concurrent increase”, the “Effect on CD4^+ T-lymphocyte counts (in words)” value ([1]; GM-CSF arm versus baseline / placebo, patients concurrently receiving antiretroviral drugs) was “a trend towards an increase; also recorded: increased at all of the evaluation points; also recorded: significant increase” and the “Change in CD4^+ T-Lymphocyte Counts Relative to Baseline, Mean (Sd)” value [1, 2] was 39 (150). For the same substance, the “Change in CD4^+ T-Lymphocyte Counts Relative to Baseline, Median” value [1, 2] was −9, the “Change in CD4^+ T-Lymphocyte Counts Relative to Baseline, Min-Max” value [1, 2] was −79-389 and the “Change in CD4^+ T-Lymphocyte Counts Relative to Baseline, Mean (Sd)” value [1, 3] was 40 (68). For the same substance, the “Change in CD4^+ T-Lymphocyte Counts Relative to Baseline, Median” value [1, 3] was 34, the “Change in CD4^+ T-Lymphocyte Counts Relative to Baseline, Min-Max” value [1, 3] was −61-135 and the “Change in CD4^+ T-Lymphocyte Counts Relative to Baseline, Mean (Sd)” value [1, 4] was 79 (172). The “Change in CD4^+ T-Lymphocyte Counts Relative to Baseline, Median” value [1, 4] was 4, the “Change in CD4^+ T-Lymphocyte Counts Relative to Baseline, Min-Max” value [1, 4] was −68-424 and the “Change in CD4^+ T-Lymphocyte Counts Relative to Baseline, Mean (Sd)” value [1, 5] was 28 (54). The “Change in CD4^+ T-Lymphocyte Counts Relative to Baseline, Median” value [1, 5] was 30, the “Change in CD4^+ T-Lymphocyte Counts Relative to Baseline, Min-Max” value [1, 5] was −68-112 and the “Absolute CD4^+ T-Lymphocyte Counts, Baseline CD4” value ([1]; individual patients of GM-CSF arm, baseline (pre-treatment), on ritonavir or indinavir regimen) was 276 and 383 and 65 and 590 and 152 and 91 and 24 (2×) and 40 and 136. The “Absolute CD4^+ T-Lymphocyte Counts, Post-Study CD4” value ([1]; individual patients, approximately 4 weeks after completion of 8-week treatment, 250 mcg s.c. three times per week) was 208 and 373 and 77 and 659 and 199 and 161 and 11 and 33 and 136 and 200, the “Absolute CD4^+ T-Lymphocyte Counts, Week 2 CD4” value ([1]; individual patients, week 2, 250 mcg s.c. three times per week for eight weeks, concurrent ritonavir or indinavir regimen) was 229 and 304 and 227 and 979 and 77 and 25 and 26 and 15 and 157 and the “Absolute CD4^+ T-Lymphocyte Counts, Week 4 CD4” value ([1]; individual patients, week 4, 250 mcg s.c. three times per week for eight weeks, concurrent ritonavir or indinavir regimen) was 356 and 477 and 31 and 725 and 91 and 219 and 12 and 61 and 26 and 182. For the same substance, the “Absolute CD4^+ T-Lymphocyte Counts, Week 8 CD4” value ([1]; individual patients, week 8, 250 mcg s.c. three times per week for eight weeks, concurrent ritonavir or indinavir regimen) was 238 and 750 and 76 and 1014 and 84 and 162 and 21 and 29 and 18 and 176, the “Absolute CD4^+ T-Lymphocyte Counts, Post-Study CD4, Median” value ([1]; median of GM-CSF arm, approximately 4 weeks post-treatment) was 180 and the “Absolute CD4^+ T-Lymphocyte Counts, Baseline CD4, Median” value ([1]; median of GM-CSF arm, baseline (pre-treatment)) was 114. For the same substance, the “Absolute CD4^+ T-Lymphocyte Counts, Week 2 CD4, Median” value ([1]; median of GM-CSF arm, week 2, 250 mcg s.c. three times per week) was 157, the “Absolute CD4^+ T-Lymphocyte Counts, Week 4 CD4, Median” value ([1]; median of GM-CSF arm, week 4, 250 mcg s.c. three times per week) was 137 and the “Absolute CD4^+ T-Lymphocyte Counts, Week 8 CD4, Median” value ([1]; median of GM-CSF arm, week 8, 250 mcg s.c. three times per week) was 123. The “MAXIMUM CHANGE > 30% THRU WEEK 8, n/N” value ([1]; patients with CD4^+ change of 30% or more over baseline / patients counted, thru week 8) was 6/10, the “MAXIMUM CHANGE > 30% THRU WEEK 12, n/N” value ([1]; patients with CD4^+ change of 30% or more over baseline / patients counted, thru week 12) was 8/10 and the “MAXIMUM CHANGE > 30% THRU WEEK 12, (%) of patients” value ([1]; share of patients with CD4^+ change of 30% or more over baseline, thru week 12) was “(80%)”.
